Results taken from patent US20230167170A1, “COMPOSITIONS COMPRISING ANTI-VEGF AND NANOPARTICLES AND METHODS OF USING THE SAME FOR THE TREATMENT OF ABNORMAL OR EXCESSIVE ANGIOGENESIS” (Cellviva, LLC, priority 2020, published 2023).

Tested on: pyogenic granuloma lesion
Assay: Treatment of pyogenic granuloma after pterygiectomy and amniotic membrane graft with bevacizumab combination therapy (patient cases)
Type: in vivo, human
Description: A topical anesthetic (proparacaine 0.5% eye drops or Alcaine manufactured by Alcon Laboratories, Inc.) was applied to the eye following recent pterygiectomy and amniotic membrane graft surgery. The patients were examined to identify any abnormal grown on the eye. […] A syringe containing approximately 0.05 mL of bevacizumab ([…]) was injected into the eye and the plunger was drawn back to determine if blood was present in the syringe hub. […] Bevacizumab was then injected into the pyogenic granuloma lesion and/or in areas adjacent to the lesion where blood vessels were dilated and numerous. If bleeding occurred (e.g., in the form of subconjunctival or subcutaneous hematoma), tamponade with Q-tips was performed until bleeding stopped; then injection was resumed. The anti-inflammatory steroid drug and/or NSAID were administered either before or after the bevacizumab injection. The anti-inflammatory steroid drug and/or NSAID were administered by injection and/or via eye drops. If the anti-inflammatory steroid drug and/or NSAID was administered by injection, it was done following a similar process as described above for the bevacizumab injection. A syringe containing approximately 0.03 mL triamcinolone injection (40 mg/mL) was injected into the pyogenic granuloma lesion and the plunger was drawn back to determine if blood was present in the syringe hub. […] The anti-inflammatory steroid drug or NSAID was injected into the pyogenic granuloma lesion and/or in areas adjacent to the lesion where blood vessels were dilated and numerous. If bleeding occurred (e.g., in the form of subconjunctival or subcutaneous hematoma), tamponade with Q-tips was performed until bleeding stopped; then injection was resumed. If the anti-inflammatory steroid drug or NSAID was delivered by eyedrops, the steroid eye drops were given for approximately 6 weeks 1 to 4 times a day (every 6 hours) or once every hour (24 drops/day). NSAID eye drops were given 4 times a day every 6 hours for 3 to 6 months. Patients were followed up with to monitor for appearance of new pyogenic granuloma. The presence of new pyogenic granuloma was an indication for further treatment (e.g. with injection and/or eye drops). In some cases, during the first surgery to remove pterygium, the pterygium was only partially removed to prevent necrosis). Thus, in some patients, additional surgeries were subsequently performed to remove remaining sections of the pterygium, resulting in additional pyogenic granuloma. Two patients (Patients 1 and 2) underwent surgery to remove primary pterygium (pterygiectomy) from the cornea of one or both eyes followed by amniotic membrane graft surgery and were treated as described below.

[1] = Patient 2, left eye, 1-month follow-up visit, triamcinolone day 98, bevacizumab day 100

bevacizumab
resolution of pyogenic granuloma (Patient 1, right eye, 30 days after day 104, triamcinolone day 90, bevacizumab day 97): completely resolved
pyogenic granuloma size (Patient 1, right eye, day 104 after surgery, triamcinolone 0.03 mL (40 mg/mL) day 90, then bevacizumab 0.05 mL (1.25 mg/mL) day 97, both into the lesion): considerably smaller in circumference
hyperemia of pyogenic granuloma (Patient 1, right eye, day 104 after surgery, triamcinolone day 90, bevacizumab day 97): no evidence of hyperemia
pyogenic granuloma lesions, stated conclusion (Patient 1, combination therapy of bevacizumab and an anti-inflammatory steroid (injected)): inhibited
recurrence of pyogenic granuloma [1]: no evidence of recurrence
resolution of pyogenic granuloma [1]: completely resolved
pyogenic granuloma size (Patient 2, left eye, within two weeks of bevacizumab injection, triamcinolone 0.03 mL (40 mg/mL) day 98, bevacizumab 0.05 mL (1.25 mg/mL) day 100): significantly smaller
erythema of pyogenic granuloma (Patient 2, left eye, within two weeks of bevacizumab injection, triamcinolone day 98, bevacizumab day 100): less erythematous
pyogenic granuloma lesions, stated conclusion (Patient 2, combination therapy of bevacizumab and an anti-inflammatory steroid (injected or topical)): inhibited
resolution of pyogenic granuloma (Patient 3, right eye, day 86, triamcinolone 0.03 mL (40 mg/mL) day 60, bevacizumab 0.05 mL (1.25 mg/mL) day 68, FIG. 4): completely resolved
pyogenic granuloma, stated conclusion (Patient 3, combination therapy of bevacizumab, an anti-inflammatory steroid (injected or topical) and a topical NSAID): eliminated
combination therapy compared with bevacizumab alone (Patient 3, combination therapy of bevacizumab, anti-inflammatory steroid and topical NSAID): superior to treatment with bevacizumab alone
pyogenic granuloma lesion after steroid and anti-VEGF injection (Patient's eye 18 days after injection of both Kenalog and bevacizumab, FIG. 4): significant reduction in the pyogenic granuloma lesion
